Assay results from a melting point compilation (Tetko et al.).

Row | SMILES | melting point [°C]
1 | Cn1c(=O)n(C)c2cc(S(=O)(=O)Cl)ccc21 | 176 to 178
2 | COc1ccc2c(c1)NCCCC2 | 46 to 48
3 | Cc1ccc(C(=O)Nc2ccccc2N)cc1 | 154 to 156
4 | Cc1[nH]c(=O)[nH]c1C | 239 to 241
5 | Cc1cc2c[nH]nc2c(C(=O)O)c1N | 174 to 176
6 | CN(C)S(=O)(=O)c1cc(N)ccc1Cl | 125 to 129
7 | Cc1ccc(N(C(=O)CCl)C2C=CS(=O)(=O)C2)cc1 (stereo not given) | 118 to 120
8 | CCOC(=O)c1nn(-c2ccccc2)cc1C=O | 99 to 101
9 | CCOC(=O)c1ncoc1-c1ccco1 | 93 to 95
10 | O=S(=O)(Nc1cccc(Br)c1)c1ccccc1 | 116 to 118
11 | NC(N=O)=C1NC=Cc2ccccc21 | 125 to 127
12 | Cc1ccc(N)c(Cl)c1Cl | 45 to 47
13 | CCS(=O)(=O)NCCS(=O)(=O)Cl | 68 to 70
14 | CCOC(=O)c1cc(Br)cc(F)c1N | 48 to 50
15 | O=C(O)C1CN(C(=O)c2ccco2)c2ccccc2O1 (stereo not given) | 154 to 156
16 | Cn1c(-c2ccccc2)c(C(=O)O)c2ccccc21 | 192 to 194
17 | Clc1ccc(-c2nc3ccccc3[nH]2)cn1 | 198 to 200
18 | CC(C)c1nnc(N)[nH]1 | 108 to 110
19 | Cc1cc(C(=O)c2cccnc2)ccc1F | 86 to 88
20 | NCC(O)c1ccc(F)c(F)c1 (stereo not given) | 53 to 55
21 | Clc1cc2nc(-c3ccccc3)nn2cn1 | 225 to 227
22 | O=C(O)C1CCN(C(=O)c2ccccc2)CC1 | 144 to 146
23 | Oc1ccc(Sc2ccnc3cc(Cl)ccc23)cc1 | 231 to 233
24 | Cc1cc(CO)ccc1Cl | 42 to 44
25 | CC(C)OC(=O)NNC(=O)CCl | 100 to 102

Row | SMILES | melting point [°C]
26 | Cc1cc(C(=O)O)nn1-c1ccc(F)cc1F | 221 to 223
27 | Cc1ccn2c(N)c(-c3cccs3)nc2c1 | 223 to 225
28 | O=CC1=C(N2CCOCC2)C(=Cc2ccccc2)CC1 | 141 to 143
29 | CNC(=CC(=O)c1ccccc1C)NC | 206 to 208
30 | NNc1ccc(S(=O)(=O)N2CCCC2)cn1 | 164 to 166
31 | CCOC(=O)c1c(C)[nH]c(C(=O)CCl)c1C | 188 to 190
32 | O=C(O)Cc1cc(-c2ccccc2)on1 | 172 to 174
33 | O/N=C/c1c(Cl)ncn1-c1ccccc1 | 179 to 181
34 | Cc1[nH][nH]c(=O)c1CCO | 183 to 185
35 | COC(=O)CC1c2ccccc2CCN1S(C)(=O)=O (stereo not given) | 103 to 105
36 | Cc1ccc(Oc2ccc(Cl)cc2NC(=O)CCl)cc1 | 87 to 89
37 | CC(C)n1ccc(C(=O)O)n1 | 77 to 79
38 | COc1ccc(N2CC(C(=O)O)CC2=O)cc1 (stereo not given) | 171 to 173
39 | NCc1nnc2ccccn12 | 131 to 133
40 | O=C(O)c1ccc(F)nc1 | 144 to 148
41 | CC(N)c1ccccc1NS(=O)(=O)c1cccs1 (stereo not given) | 167 to 169
42 | Cc1nn(-c2ccccc2Cl)c(C(F)F)c1C(=O)O | 204 to 206
43 | CC(C)n1cccc1C(=O)O | 106 to 108
44 | COC(=O)c1ccc(-c2csc(N)n2)cc1 | 239 to 241
45 | CN(CC(=O)O)S(=O)(=O)c1cccnc1 | 175 to 177
46 | Oc1cccc(-n2ccnc2)c1 | 172 to 174
47 | OCCOc1ccccc1O | 99 to 100
48 | Nc1nc2ccc(Cl)cn2n1 | 183 to 185
49 | O=C(O)CCNC(=O)c1ccc(Cl)cc1 | 167 to 169
50 | NC(=NO)c1cccc(Oc2ccccc2)c1 | 66 to 68

Row | SMILES | melting point [°C]
51 | COC(=O)c1ccc(C(N)=S)cc1 | 189 to 191
52 | Nc1ccc(Sc2ccc(Cl)cc2)cc1 | 60 to 62
53 | O=S(=O)(CCN1CCNCC1)c1ccc(Br)cc1 | 99 to 101
54 | NC(=O)c1cncc(C(=O)O)c1 | 269 to 271
55 | COc1ncc(C(=O)O)cn1 | 219 to 221
56 | Fc1ccc(C2=NOC(CCl)C2)cc1 (stereo not given) | 59 to 61
57 | O=C(c1ccccn1)N1CCNCC1 | 231 to 233
58 | CCOC(=O)/C(C#N)=C/Nc1cc(OC)cc(OC)c1 | 140 to 142
59 | CCOC(=O)c1cnn2cc(Br)cnc12 | 141 to 143
60 | CCCCc1ccnc(N)n1 | 99 to 101
61 | CN(C)C(=O)COc1ccccc1C(=O)O | 127 to 129
62 | Nc1ccc(F)c(NS(=O)(=O)c2cccs2)c1 | 179 to 181
63 | CCOC(=O)c1c(Cl)c2ncc(S(=O)(=O)Cl)cc2n1C | 141 to 143
64 | CC(Cl)C(=O)Nc1ccccc1Oc1ccccc1 (stereo not given) | 64 to 66
65 | CSc1cnn(-c2ccccc2)c1N | 77 to 79
66 | O=S(=O)(c1cccc2cnccc12)N1CCCNCC1 | 146 to 148
67 | c1ccc(-c2csc(N3CCOCC3)n2)cc1 | 75 to 77
68 | CC(C)NS(=O)(=O)c1ccc(C(=O)O)cc1 | 225 to 227
69 | COc1ccc(-c2nn(-c3ccccc3)cc2C(=O)O)cc1OC | 188 to 190
70 | COc1ccc(C(=O)O)cc1OCCO | 190 to 192
71 | CN1CC(=O)N(CCCC(=O)O)C1=O | 79 to 81
72 | Nc1cccc(S(=O)(=O)C2CCCC2)c1 | 117 to 119
73 | CCN(CC)S(=O)(=O)c1ccc(N2CCCC2)c(C(=O)O)c1 | 141 to 144
74 | O=C(O)CCNC(=O)c1c[nH]c2ccccc12 | 157 to 159
75 | Cc1nc2sccc2c(=O)n1N | 181 to 183

Row | SMILES | melting point [°C]
76 | Cc1ccc(CNC(N)=O)cc1 | 184 to 186
77 | COc1ccc(-c2nc(C(=O)O)cs2)cc1 | 172 to 174
78 | CC1CCCCC1Nc1nnc(S)s1 (stereo not given) | 133 to 135
79 | O=C1CCCc2ccc(F)cc21 | 56 to 58
80 | CCc1ccc2c(c1)C(=O)C(=O)N2CC(=O)O | 166 to 168
81 | Cc1ccc2c(C)cc(NN)nc2c1C | 191 to 193
82 | O=C(Nc1ccc(-n2cncn2)nc1)OCC(F)(F)F | 192 to 194
83 | CC(=O)Nc1nc(C(=O)O)cs1 | 299 to 301
84 | Nc1cc(-c2cccc(Cl)c2)n[nH]1 | 130 to 132
85 | NS(=O)(=O)c1scnc1C(=O)O | 205 to 207
86 | O=C(O)CCCNC(=O)OCc1ccccc1 | 60 to 64
87 | Cc1[nH]c2ccc(Cl)cc2c1C(=O)O | 193 to 195
88 | Cc1ccc(/C=C/c2n[nH]c(S)n2)o1 | 275 to 277
89 | C#CCn1ccc2ccccc21 | 43 to 45
90 | O=C(O)C1CCCCN1C1=NS(=O)(=O)c2ccccc21 (stereo not given) | 185 to 187
91 | CC(C)(C)OC(=O)N1CCc2c(N)cccc2C1 | 122 to 124
92 | CN(CC(N)=S)C(=O)c1ccccc1 | 149 to 151
93 | COC(=O)N1CCCNC(=O)C1 | 134 to 136
94 | O=c1[nH]c(=O)n(Cc2ccccc2)c2ncn(C3CCCC3)c12 | 252 to 254
95 | CN(CCO)CC(=O)O | 136 to 138
96 | O=C(O)CSCc1coc(-c2ccccc2)n1 | 124 to 126
97 | Cc1nn(Cc2ccc(Cl)cc2)c(C)c1C=O | 71 to 73
98 | CCc1noc(-c2cc(Cl)ccc2N)n1 | 107 to 109
99 | Nc1cnccc1CO | 112 to 114
100 | NC(=O)CCC1CCNCC1 | 64 to 66

Row | SMILES | melting point [°C]
101 | Cc1cc(-c2ccccc2)nc2cc(O)nn12 | 231 to 233
102 | O=C(O)c1cnc2c(c1)c(C1CC1)nn2-c1ccccc1 | 250 to 252
103 | Cc1ccc(C(=O)C(O)c2ccc(C)cc2)cc1 (stereo not given) | 88 to 90
104 | O=C(Cn1c(Cl)nc2ccccc21)c1ccccc1 | 168 to 170
105 | Cc1nc2c(C(N)=O)cnn2c(C)c1CCC(=O)O | 282 to 284
106 | O=C(O)c1c[nH]c2c(Br)ccc(Br)c2c1=O | 271 to 273
107 | O=C(O)c1cn(Cc2ccccn2)nn1 | 179 to 181
108 | O=C(O)Cc1csc(-c2ccc(O)cc2)n1 | 97 to 99
109 | CC(C)(C)OC(=O)N1C2CCC1CC(O)C2 (stereo not given) | 140 to 142
110 | Cc1ccc(F)cc1NC(=O)C(C)Cl (stereo not given) | 101 to 103
111 | NCCNS(=O)(=O)c1cccc(Cl)c1 | 84 to 86
112 | CC(C)NS(=O)(=O)c1cc(C(=O)O)ccc1F | 168 to 170
113 | Nc1nnns1 | 120 to 122
114 | O=C(O)c1cc([N+](=O)[O-])c(F)cc1Br | 171 to 173
115 | Cc1ccc(C2CS(=O)(=O)CCN2)o1 (stereo not given) | 111 to 113
116 | COC(=O)C1CCc2ccccc2C1=O (stereo not given) | 71 to 73
117 | NC(=S)Nc1ccc2c(c1)CCC2 | 179 to 181
118 | CCc1nc2sccc2c(=O)[nH]1 | 199 to 201
119 | Cc1ccccc1-n1nc(C(=O)O)c2c1CCC2 | 205 to 207
120 | CC(C)(C)n1[nH]c(=O)cc1N | 223 to 225
121 | CC(C)NC(=O)c1ccc(N)cc1 | 149 to 151
122 | COc1cccc(C(N)C(=O)O)c1 (stereo not given) | 198 to 200
123 | Cc1ccc(C(N)=S)o1 | 149 to 151
124 | CC(C)n1c(N)nnc1S | 189 to 191
125 | O=c1c(Cl)c(Cl)cnn1-c1ccc(Cl)cc1Cl | 200 to 202

Row | SMILES | melting point [°C]
126 | NC(=O)c1ccc(C(=O)O)o1 | 286 to 288
127 | O=C(O)c1cn(-c2ccc(Br)cc2C(F)(F)F)nn1 | 139 to 141
128 | COC(=O)c1ccc(-c2nc(CCl)cs2)cc1 | 108 to 110
129 | COc1cc(CO)c([N+](=O)[O-])cc1OCC(F)F | 107 to 109
130 | CS(=O)(=O)c1ccc(F)c(NC(=O)CCl)c1 | 126 to 128
131 | CCOc1ccc(NC(N)=S)cc1 | 164 to 166
132 | COC(=O)C(C)(N)C(c1ccccc1)c1ccccc1 (stereo not given) | 68 to 70
133 | CC(C)Cc1ccc(CCC(=O)O)cc1 | 64 to 66
134 | Sc1nc2cc(Cl)cnc2[nH]1 | 352 to 354
135 | Cc1ccccc1-n1c(S)nc2ccccc2c1=O | 96 to 97
136 | CCCC1CCc2[nH]c(=O)c(C#N)cc2C1 (stereo not given) | 233 to 235
137 | Cn1cnc(-c2ccc(F)cc2)c1N | 148 to 150
138 | O=C(O)c1cccc(OCc2cccs2)c1 | 147 to 149
139 | N#Cc1ccc(NN)cc1C(F)(F)F | 119 to 121
140 | NC(=O)CC1CCCCN1 (stereo not given) | 108 to 110
141 | O=Cc1ccc(OCc2ccccn2)cc1 | 88 to 90
142 | Cn1cnc(S(=O)(=O)Cl)c1Cl | 54 to 56
143 | Nn1cn[nH]c1=O | 169 to 171
144 | CNS(=O)(=O)c1cc(C(=O)O)ccc1OC | 221 to 223
145 | O=c1cc(Cl)nc2ccc(Cl)cn12 | 219 to 221
